Test results published in US7829573B2, “Therapeutic combinations of antihypertensive and antiangiogenics agents” (AstraZeneca AB, priority 2000, dated 2010).
Like-named read-outs stand apart in the source and are kept apart here.

Legend:
[1] = Measurement of blood pressure in conscious rats by radio telemetry; format: in vivo, rat
Procedure: Blood pressure was measured using the Data Sciences radio-telemetry equipment (Data Sciences International, Saint Paul, Minn., USA). This provides a means of measuring the blood pressure (BP), heart rate and activity of a conscious unrestrained rat remotely. The measurements obtained using this system are free from the stresses induced by surgery and restraint. The system comprises a pressure transducer (TA11PA-C40) (the ‘implant’) implanted in the abdomen of a rat which transmits a radio signal indicating the pressure in the aorta of the animal. The signal is detected by a receiver RA1010) placed under the plastic cage which houses the animal.
Rats were anaesthetised with “Fluothane™” inhalation anaesthetic. The abdomen of the rat was shaved and the skin coated with a topical disinfectant. […]
Blood pressure data was recorded from each animal every 10 minutes throughout the study. […] This average day time blood pressure measurement for each rat was calculated over a 4 day period immediately prior to the commencement of compound dosing.
For the next 4 days (i.e. days 11 to 14 of compound dosing) the rats were dosed with the ACE inhibitor captopril at 30 mg/kg p.o. once daily in addition to the quinazoline compound. The average blood pressure of each rat was calculated daily and the difference between the daily calculated pressure and the starting pressure was expressed.

[2] = anaesthetised rats, 15 μg/kg bFGF; cited from earlier work
[3] = conscious rats, VEGF 250 μg/kg; cited from earlier work
coronary arteries = conditions: dog, in vitro; cited from earlier work

Molecule: C[C@H](CS)C(=O)N1CCC[C@H]1C(=O)O [captopril, reference compound]
- effect of addition of ACE inhibitor on the increase in blood pressure caused by the VEGF receptor tyrosine kinase inhibitor ([1]; captopril 30 mg/kg p.o. once daily on days 11 to 14 in addition to the quinazoline compound 12.5 mg/kg p.o.): reversed

Molecule: bFGF: basic fibroblast growth factor, polypeptide with endothelial cell growth promoting activity
- time to return to normal blood pressure [2]: ≤ 30 min

Molecule: VEGF
- time to return to normal blood pressure [3]: ≤ 20 min
- effect on coronary arteries (coronary arteries): dilate coronary arteries

Molecule: COc1cc2c(Nc3ccc(Br)cc3F)ncnc2cc1OCC1CCN(C)CC1 [4-(4-bromo-2-fluoroanilino)-6-methoxy-7-(1-methylpiperidin-4-ylmethoxy)quinazoline]
- effect on the diastolic blood pressure in rats ([1]; conscious male wistar rats, 12.5 mg/kg p.o. once daily for 10 days, 3 dosed rats and a control rat (FIG. 1)): increase in blood pressure
